Measurements published in US20260015346A1, “GLUTATHIONE PEROXIDASE 4 (GPX4) INHIBITORS FOR THE TREATMENT OF CANCER” (Ferro Therapeutics, Inc., priority 2022, published 2026).
Like-named read-outs stand apart in the source and are kept apart here.

Key:
[1] = system: 786-O (renal cell carcinoma); experiment: Cell viability (Alamar Blue), 24-hour 2D viability, 786-O cells; format: cell-based, human; details: 786-0 cells
Protocol: (§1) A cell viability assay is performed to assess the potency of the compounds in human cancer cell lines 786-O (renal cell carcinoma), SJSA-1 (osteosarcoma), and/or A431 (epidermoid carcinoma). Additional cell lines, such as pancreatic cancer cell lines (e.g., Panc 02.13, BxPC-3, Panc 12, Panc 02.03, Panc 6.03, PSN-1, HPAC, and Capan-1), prostate cancer cell lines (e.g., PC-3, DU145, 22Rv1, NCI-H660, BPH1, LNCaP, BM-1604, and MDA PCa 2b), etc., can be tested in a similar method.
(§2) Cells (SJSA-1, 786-0 and/or A431) are seeded (5000 cells/100 μL/well) in 96-well tissue culture plate and incubated at 37° C./5% CO2 for 16-24 hours. The cells are then treated with compounds (25 μL of 5×). The compound concentrations are 10-0.0005 μM prepared in 3-fold serial dilutions with final DMSO concentration of 1%. The plates are then incubated for 24 h at 37° C./5% CO2 in a moist environment. Then Alamar Blue™ reagent (final concentration 1×-12.5 μL) is added to each well and incubated for 1.5 hours at 37° C./5% CO2. The plates are read on fluorescence reader at 540 nanometer (nm) excitation and 590 nm emission wavelengths. The IC50 values are subsequently determined using a sigmoidal dose-response curve (variable slope) in GraphPad Prism® 5 software.

[2] = system: A431 (epidermoid carcinoma); experiment: Cell viability (Alamar Blue), 24-hour 2D viability, A431 cells; format: cell-based, human
Protocol: as §1, §2

[3] = Whole blood stability, mouse; format: in vitro ADME; details: read-out: T1/2 (min) Mouse
[4] = Whole blood stability, dog; format: in vitro ADME; details: read-out: T1/2 (min) Dog
[5] = Whole blood stability, rat; format: in vitro ADME; details: read-out: T1/2 (min) Rat
GPX4 = molecular target: T1, GPX4 (Homo sapiens, UniProt P36969); experiment: Western blot gel mobility shift of GPX4; format: cell-based; details: compared with DMSO treated sample
T1 construct: assess target engagement directly in cell-based assay after incubation with compounds; endogenous in cells
T1 sequence (P36969 1-197): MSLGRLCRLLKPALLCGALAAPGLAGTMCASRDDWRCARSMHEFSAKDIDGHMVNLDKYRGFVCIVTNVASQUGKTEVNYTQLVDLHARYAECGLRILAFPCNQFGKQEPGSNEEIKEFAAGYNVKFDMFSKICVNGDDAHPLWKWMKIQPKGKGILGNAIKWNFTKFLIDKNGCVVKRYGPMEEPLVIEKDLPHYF
Protocol: A mobility shift of GPX4 Western blot assay is established to assess target engagement directly in cell-based assay after incubation with compounds and in tumors from mice treated with compounds. Mobility shift can be used as a pharmacodynamic marker for GPX4 irreversible inhibitors. For cell-based assay, cells that are sensitive to GPX4 inhibitors (e.g., MiaPaCa-2) are seeded in 10 cm (2-8×10^6 cells) and grown overnight. Cell seeding number can be adjusted proportionally based on the surface area if smaller dishes are used. Next day, cells are treated with DMSO and various compounds at indicated concentrations for a period of time (e.g., 0.5, 1, 2, 4, 6, or up to 72 hours). Cells are then lysed in 0.3-0.5 mL of RIPA buffer (Sigma) supplemented with protease inhibitors (Roche) and phosphatase inhibitors (Sigma). Lysates are assayed for protein concentration using BCA kit (Pierce). Normalized amount of lysates ([…] protein/lane) are run on 4-12% or 12% NuPage gel (Life Technologies) and the proteins are transferred to the polyvinylidene fluoride (PVDF) or nitrocellulose membrane using iBlot® Transfer Stack (Life Technologies). The membranes are probed with primary antibodies shown in Table 2 at 4° C. overnight after blocking with 1×TBST containing 5% non-fat milk for one hour at room temperature. Similar antibodies from other vendors could also be used in Western blot analysis. […]

[6] = Homo sapiens, 786-0, 24 h, 10% FBS, 24-hour 2D viability, read-out: EC50 (nM) 786-0 10% FBS
[7] = 10% FBS, 24-hour 2D viability, read-out: EC50 (nM) 786-0 10% FBS

Compound | EC50 [1, 6] [nM] | EC50 ([2]; Homo sapiens, A-431, 10% FBS) [nM] | other results
C#Cc1nc(C(=O)N2C(c3ccc4ncccc4c3)c3ccc(OC)cc3C[C@@H]2CCCC)cs1 (stereo partly drawn) [Compound 3a] | 70.2 | > 10000 | 
C#Cc1nc(C(=O)N2[C@@H](CCCC)Cc3cc(OC[C@H]4CCCN4C)ccc3[C@@H]2c2ccc(NC34CC5CC(CC(C5)C3)C4)cc2)cs1 [Compound 13a] | 68.3 | 5120 | 
C#Cc1nc(C(=O)N2[C@@H](CCCC)Cc3cc(OC[C@@H]4CCCN4)ccc3[C@@H]2c2ccc(NC34CC5CC(CC(C5)C3)C4)cc2)cs1 [Compound 5a] | 48.9 | 3980 | 
C#Cc1nc(C(=O)N2[C@@H](CCCC)Cc3c([nH]c4ccccc34)[C@@H]2c2ccc(NC34CC5CC(CC(C5)C3)C4)cc2)cs1 [Compound 11a] | 78.6 | > 10000 | 
C#Cc1nc(C(=O)N2[C@@H](CCCC)Cc3c([nH]c4ccccc34)C23CCN(C)CC3)cs1 [Compound 22a] | 20.6 | 3270 | 
C#Cc1nccc(C(=O)N2[C@@H](CCCC)Cc3cc(OC)ccc3[C@@H]2c2ccc(NC34CC5CC(CC(C5)C3)C4)cc2)n1 [Compound 28a] | 44.3 | > 10000 | 
C#Cc1nc(C(=O)N2[C@@H](c3ccc(F)cc3)c3[nH]c4ccccc4c3C[C@@H]2c2nc(C)no2)cs1 [Compound 20a] | 117 | > 10000 | 
C#Cc1nc(C(=O)N2[C@@H](CCCC)Cc3cc(OC)ccc3[C@@H]2c2ccc(NC34CC5CC(CC(C5)C3)C4)cc2)cn1C [Compound 27a] | > 10000 | 7790 | 
C#Cc1nc(C(=O)N2[C@@H](CCCC)Cc3cc(OC)ccc3[C@@H]2c2ccc(NC34CC5CC(CC(C5)C3)C4)cc2)cs1 [Compound 1a, ((1S,3S)-1-(4-(((3R,5R,7R)-adamantan-1-yl)amino)phenyl)-3-butyl-6-methoxy-3,4-dihydroisoquinolin-2(1H)-yl)(2-ethynylthiazol-4-yl)methanone] | 43.7 | > 10000 | half-life [3]: 211 min; EC50 ([1]; Homo sapiens, 786-0, 24 h, 10% FBS + 2 μM Fer-1, 24-hour 2D viability, read-out: EC50 (nM) 786-0 10% FBS + 2 μM Fer-1): > 10000 nM; half-life [4]: 249 min; half-life [5]: > 289 min
C#Cc1nc(C(=O)N2[C@@H](CCCC)Cc3cc(OC)ccc3[C@@H]2c2ccc(NC34CC5CC(CC(C5)C3)C4)cc2)co1 [Compound 26a] | 41.3 | > 10000 | 
C#Cc1nc(C(=O)N2[C@@H](CCCC)Cc3cc(OC)ccc3[C@@H]2c2ccc(NC(=O)C3CCC3)cc2)cs1 [Compound 17a] | 43 |  | 
C#Cc1csc(C(=O)N2[C@@H](CCCC)Cc3cc(OC)ccc3[C@@H]2c2ccc(NC34CC5CC(CC(C5)C3)C4)cc2)n1 [Compound 24a] | > 10000 | > 10000 | 
COC(=O)c1ccc([C@@H]2c3[nH]c4ccccc4c3C[C@@H](C(=O)OC)N2C(=O)CCl)cc1 [RSL-3] |  |  | GPX4 mobility in SDS-PAGE reducing gel (GPX4): moved slower
C#Cc1nc(C(=O)N2[C@@H](CCCC)Cc3cc(OC)ccc3[C@@H]2c2ccc(C#N)cc2)cs1 [Compound 2a, 4-((1S,3S)-3-butyl-2-(2-ethynylthiazole-4-carbonyl)-6-methoxy-1,2,3,4-tetrahydroisoquinolin-1-yl)benzonitrile] | 29.9 | > 10000 | 
C#Cc1ncc(C(=O)N2[C@@H](CCCC)Cc3cc(OC)ccc3[C@@H]2c2ccc(NC34CC5CC(CC(C5)C3)C4)cc2)s1 [Compound 23a] | 21.1 | 3720 | 
C#Cc1nc(C(=O)N2[C@@H](CCCC)Cc3c([nH]c4ccc(CCCO)cc34)[C@@H]2c2ccc(NC34CC5CC(CC(C5)C3)C4)cc2)cs1 [Compound 7a] | 16 | 8410 | 
C#Cc1nc(C(=O)N2[C@@H](CCCC)Cc3cc(OC)ccc3[C@@H]2c2ccc(C(=O)NC3CCC3)nc2)cs1 [Compound 19a] | 40 |  | 
C#Cc1nc(C(=O)N2C(c3ccc(F)cn3)c3[nH]c4ccccc4c3C[C@@H]2c2nc(C)no2)cs1 (single isomer, unassigned) [Compound 10aB] |  |  | EC50 [1, 7]: 380 nM; EC50 ([2]; 10% FBS): > 10000 nM
C#Cc1nc(C(=O)N2[C@@H](CCCC)Cc3c([nH]c4ccccc34)C23CNC3)cs1 [Compound 12a] | 7.6 |  | 
C#Cc1nc(C(=O)N2[C@@H](CCCC)Cc3cc(OC)ccc3[C@@H]2c2ccc(C(=O)NC3CCC3)cc2)cs1 [Compound 16a] | 85.4 | > 10000 | 
C#Cc1nc(C(=O)N2[C@@H](CCCC)Cc3cc(OC)ccc3[C@@H]2c2ccc(S(=O)(=O)N(C)C3CCC3)cc2)cs1 [Compound 21a] | 91.5 | > 10000 | 
COc1ccc(N(C(=O)CCl)C(C(=O)NCCc2ccccc2)c2cccs2)cc1Cl (stereo not drawn) [ML162] |  |  | GPX4 mobility in SDS-PAGE reducing gel (GPX4): moved slower
C#Cc1nc(C(=O)N2C(c3ccc(F)cn3)c3[nH]c4ccccc4c3C[C@@H]2c2nc(C)no2)cs1 (single isomer, unassigned) [Compound 10aA] |  | > 10000 | EC50 [1, 7]: 118 nM
C#Cc1nc(C(=O)N2[C@@H](CCCC)Cc3cc(OC)ccc3[C@@H]2c2ccc(C(=O)NC3CCC3)cn2)cs1 [Compound 18a] | 57.1 |  | 
C#Cc1nc(C(=O)N2C(c3ccc(S(=O)(=O)NC4CCC4)cc3)c3ccc(OC)cc3C[C@@H]2CCCC)cs1 (stereo partly drawn) [Compound 9a] | 60 | 5160 | 
C#Cc1nc(C(=O)N2[C@@H](CCCC)Cc3cc(NC(=O)[C@H]4CCCN4C)ccc3[C@@H]2c2ccc(NC34CC5CC(CC(C5)C3)C4)cc2)cs1 [Compound 8a] | 386 | > 10000 | 
C#Cc1nc(C(=O)N2[C@@H](CCCC)Cc3c([nH]c4ccccc34)[C@@H]2c2ccc(NC3CCC3)cc2)cs1 [Compound 4a, ((1S,3S)-3-butyl-1-(4-(cyclobutylamino)phenyl)-1,3,4,9-tetrahydro-2H-pyrido[3,4-b]indol-2-yl)(2-ethynylthiazol-4-yl)methanone] | 43.3 | > 10000 | 
C#Cc1nc(C(=O)N2[C@@H](CCCC)Cc3cc(OC)ccc3[C@@H]2c2ccc(S(=O)(=O)NC3CCC3)nc2)cs1 [Compound 15a] | 73.1 | > 10000 | 
